Reference: US20220041641A1, “QUATERNARY AMMONIUM SALTS AS INHIBITORS OF TRIMETHYLAMINE PRODUCTION” (Senda Biosciences, Inc., priority 2018, published 2022)
Values joined by “and” are separate entries in the source; they are usually repeats but may differ in a detail not shown here. Equal values may be shown once. Where a name gives a salt, the structure may show the parent alone. Read-outs that look alike come from different tables or passages of the source.

Experiments:
[1] = molecular target: CutC from Clostridium sporogenes (Clostridium sporogenes, UniProt A0AAE4Z0A8); assay: Cell-based assay for TMA production from a native producer (C. sporogenes); settings: read-out: IC50 Whole cell C. sporogenes; d9-TMA from 1 mM d9-choline, 5 h, 37° C.; run once; value 10 given when no fit or % TMA remaining at 10 μM higher than 15%
Excerpt: (§1) In each bacterium, CutC was modified into its activated form by a cognate activating enzyme, CutD (protein EDU36696.1 for C. sporogenes; protein WP_004249185.1 for P. mirabilis). […] Trimethylamine may subsequently be converted by human enzymes such as flavin monooxygenase 3 to trimethylamine N-oxide, which might be associated with negative health consequences in humans.
(§2) A compound's ability to inhibit CutC from Proteus mirabilis and C. sporogenes from converting choline into trimethylamine was tested in cells as described. A BHI blood plate was inoculated with a frozen stock of Proteus mirabilis or Clostridium sporogenes under anaerobic conditions. A single colony was isolated from the plate and inoculated into 5 mL BHI supplemented with 1 mM choline under anaerobic conditions. The liquid cultures were grown overnight at 37° C.
(§3) To prepare each sample, 300 μL of the saturated culture was then inoculated into a 30 mL dilution blank under anaerobic conditions. 1 mM (trimethyl-d9)-choline and a sufficient amount of a compound to obtain a final concentration of 10 μM were added to the inoculated dilution blank. […] The mixture was incubated at 37° C. for 5 h. […] After centrifugation, the samples were analyzed by LCMS to determine the amount of d9-TMA produced.

[2] = molecular target: CutC from Proteus mirabilis (Proteus mirabilis, UniProt B4EYG1); assay: Cell-based assay for TMA production from a native producer (P. mirabilis)
Excerpt: as §1, §2, §3

CutC/D enzyme = assay: Acute mouse model (plasma TMAO on choline diet); assay type: in vivo, male C57BL/6 mice
Procedure: The following acute mouse model may be used to determine inhibition of the CutC/D enzyme and thus the inhibition of the formation of trimethylamine (TMA) from choline.
On day 1, male C57BL/6 mice were given a chemically defined diet (Tekland Global Rodent Diet 2018) containing 1.0% choline (g/g) for the duration of the experiment. Concurrently on day 1, mice were orally gavaged with 200 μL of compounds of interest (formulated in water). Mice were orally gavaged with the compounds and vehicle control again on day 2 and day 3 at a fixed time. Twenty hours after the last gavage, mice were sacrificed, and plasma was collected and prepared for detection of trimethylamine-N-oxide (TMAO) via liquid chromatography with on-line tandem mass spectrometry (LC-MS/MS). Food consumption and mouse weight were measured each day.
Plasma samples were prepared for LCMS as follows: An aliquot of 20 μL plasma sample was protein precipitated with 200 μL internal standard solution (100 ng/mL Labetalol & 100 ng/mL Tolbutamide & 100 ng/mL Diclofenac in acetonitrile, the mixture was vortex-mixed and centrifuged at 4000 rpm for 15 min, 4° C. An aliquot of 100 μL supernatant was transferred to the sample plate for LCMS injection. 1 μL of sample was injected onto an LC column for TMAO LCMS analysis.
Concentrations of TMAO were determined with a calibration curve ranging 0.05-100 μM for d9-TMAO in control plasma.

[3] = d9-TMA from 1 mM d9-choline, 5 h, 37° C.; value 10 given when no fit or % TMA remaining at 10 μM higher than 15%; read-out: Average IC50 Whole cell P. mirabilis
[4] = Table 4d, 100 mg/kg oral gavage days 1-3
[5] = Table 4d, 100 mg/kg oral gavage days 1-3, plasma 20 h after last gavage

CutC from Clostridium sporogenes, sequence (A0ABD6RTF0 entry or part of it): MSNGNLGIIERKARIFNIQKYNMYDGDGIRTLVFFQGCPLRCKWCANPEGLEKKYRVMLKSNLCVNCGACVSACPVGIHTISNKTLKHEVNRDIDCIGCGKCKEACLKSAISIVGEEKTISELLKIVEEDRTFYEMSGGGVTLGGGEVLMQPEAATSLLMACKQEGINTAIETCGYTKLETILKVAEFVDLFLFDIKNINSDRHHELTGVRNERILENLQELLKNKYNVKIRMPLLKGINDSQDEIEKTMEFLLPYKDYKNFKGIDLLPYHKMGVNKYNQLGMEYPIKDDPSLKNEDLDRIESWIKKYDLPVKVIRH
CutC from Clostridium sporogenes, sequence (A0AAE4Z0A8 entry or part of it): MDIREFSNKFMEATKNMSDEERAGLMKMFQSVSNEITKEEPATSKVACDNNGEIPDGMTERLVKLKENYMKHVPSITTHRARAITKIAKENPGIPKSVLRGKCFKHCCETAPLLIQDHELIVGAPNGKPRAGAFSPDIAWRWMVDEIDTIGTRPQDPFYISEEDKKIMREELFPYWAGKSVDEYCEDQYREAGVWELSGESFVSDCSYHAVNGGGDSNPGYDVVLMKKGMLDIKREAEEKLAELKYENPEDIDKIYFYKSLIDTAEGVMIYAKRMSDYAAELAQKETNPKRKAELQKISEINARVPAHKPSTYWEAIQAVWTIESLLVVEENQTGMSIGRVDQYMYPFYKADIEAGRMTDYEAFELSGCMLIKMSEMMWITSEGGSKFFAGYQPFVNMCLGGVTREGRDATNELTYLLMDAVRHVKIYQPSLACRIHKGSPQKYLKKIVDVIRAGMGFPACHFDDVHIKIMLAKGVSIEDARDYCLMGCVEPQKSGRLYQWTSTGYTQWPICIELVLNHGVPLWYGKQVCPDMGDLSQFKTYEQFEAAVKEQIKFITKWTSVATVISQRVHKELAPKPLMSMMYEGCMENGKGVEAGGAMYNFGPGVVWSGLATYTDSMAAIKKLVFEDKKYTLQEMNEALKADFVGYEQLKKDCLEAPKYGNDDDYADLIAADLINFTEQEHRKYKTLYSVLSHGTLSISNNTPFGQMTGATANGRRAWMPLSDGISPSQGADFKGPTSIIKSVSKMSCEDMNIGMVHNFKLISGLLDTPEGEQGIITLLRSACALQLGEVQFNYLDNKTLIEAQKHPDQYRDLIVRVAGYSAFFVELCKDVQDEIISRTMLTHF
CutC from Proteus mirabilis, sequence (B4EYG1 entry or part of it): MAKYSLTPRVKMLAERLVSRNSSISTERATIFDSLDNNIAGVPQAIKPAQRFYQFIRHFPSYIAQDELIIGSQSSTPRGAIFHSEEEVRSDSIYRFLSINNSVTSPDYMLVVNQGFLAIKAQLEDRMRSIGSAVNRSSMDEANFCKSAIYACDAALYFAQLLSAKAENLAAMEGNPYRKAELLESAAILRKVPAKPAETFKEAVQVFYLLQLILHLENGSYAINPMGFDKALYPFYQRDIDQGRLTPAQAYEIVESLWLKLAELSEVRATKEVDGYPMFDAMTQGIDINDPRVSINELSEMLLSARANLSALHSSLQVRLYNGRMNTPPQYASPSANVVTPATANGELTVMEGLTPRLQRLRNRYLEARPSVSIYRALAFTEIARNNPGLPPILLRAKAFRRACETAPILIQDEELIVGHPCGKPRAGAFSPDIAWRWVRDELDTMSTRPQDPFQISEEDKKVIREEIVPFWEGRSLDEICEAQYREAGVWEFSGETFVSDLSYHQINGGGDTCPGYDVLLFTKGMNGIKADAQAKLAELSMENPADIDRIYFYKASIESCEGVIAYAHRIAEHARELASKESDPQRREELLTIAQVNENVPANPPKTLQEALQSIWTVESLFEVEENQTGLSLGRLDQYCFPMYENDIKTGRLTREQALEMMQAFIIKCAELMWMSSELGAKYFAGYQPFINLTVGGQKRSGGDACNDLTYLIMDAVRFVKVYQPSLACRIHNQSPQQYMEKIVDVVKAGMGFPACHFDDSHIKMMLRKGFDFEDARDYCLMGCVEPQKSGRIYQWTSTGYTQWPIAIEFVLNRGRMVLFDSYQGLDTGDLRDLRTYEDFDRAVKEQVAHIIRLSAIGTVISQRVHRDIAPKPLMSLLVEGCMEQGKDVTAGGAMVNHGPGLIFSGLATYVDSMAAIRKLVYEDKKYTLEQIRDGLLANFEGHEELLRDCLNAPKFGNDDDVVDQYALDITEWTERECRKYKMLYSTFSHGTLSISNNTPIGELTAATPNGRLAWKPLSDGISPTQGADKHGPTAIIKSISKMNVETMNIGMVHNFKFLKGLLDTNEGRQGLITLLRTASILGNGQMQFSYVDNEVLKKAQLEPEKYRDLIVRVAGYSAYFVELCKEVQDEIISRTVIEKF
CutC from Proteus mirabilis, sequence (B4EYG0 entry or part of it, further chain): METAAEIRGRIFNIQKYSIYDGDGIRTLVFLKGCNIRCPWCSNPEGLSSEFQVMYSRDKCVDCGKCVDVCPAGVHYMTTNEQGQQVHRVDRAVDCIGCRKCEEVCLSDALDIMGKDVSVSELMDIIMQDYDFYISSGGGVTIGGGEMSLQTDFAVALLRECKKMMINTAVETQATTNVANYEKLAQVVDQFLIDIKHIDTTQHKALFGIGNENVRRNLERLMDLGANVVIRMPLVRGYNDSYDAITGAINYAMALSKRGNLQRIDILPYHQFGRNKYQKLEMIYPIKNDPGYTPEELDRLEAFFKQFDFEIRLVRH

| Compound | IC50 [1] [nM] | IC50 [2, 3] | further results |
| --- | --- | --- | --- |
| C#CCC[N+](C)(C)C [Compound 130] | ≥ 10000 | 3470 nM | – |
| C[N+]1(C)CCCC1CO (stereo not drawn) [Compound 110, 2-(hydroxymethyl)-1,1-dimethylpyrrolidin-1-ium Iodide] | ≥ 10000 | ≥ 10000 nM | – |
| C#CC[N+]1(C)CC[C@H](O)C1 (stereo partly drawn) [Compound 112, (3S)-3-hydroxy-1-methyl-1-(prop-2-yn-1-yl)pyrrolidin-1-ium bromide] | 280 | 550 nM | – |
| C[N+](C)(C)CC#CCO [Compound 132, 4-hydroxy-N,N,N-trimethylbut-2-yn-1-aminium Chloride] | ≥ 10000 | ≥ 10000 nM | – |
| C[N+](C)(CF)CC(O)O [Compound 146] | 1500 | ≥ 10000 nM | – |
| C#CC[N+](C)(C)CCCC(=O)O [Compound 144, N-(3-carboxypropyl)-N,N-dimethylprop-2-yn-1-aminium Iodide] | 700 | 580 nM | – |
| C#CC[N+](C)(C)CCCO [Compound 138, N-(3-hydroxypropyl)-N,N-dimethylprop-2-yn-1-aminium Trifluoroacetate] | 5350 | 1050 nM | – |
| C[N+](C)(C)CCCP(=O)(O)O [Compound 143, N,N,N-trimethyl-3-phosphonopropan-1-aminium Trifluoroacetatetrifluoroacetatetrifluoroacetatetrifluoroacetatetrifluoroacetate] | ≥ 10000 | – | IC50 ([2]; read-out: Average IC50 Whole cell P. mirabilis; d9-TMA from 1 mM d9-choline, 5 h, 37° C.; value 10 given when no fit or % TMA remaining at 10 μM higher than 15%): ≥ 10000 nM |
| C#CC[N+](C)(C)CC(=C)C(=O)O.[Br-] [Compound B52, 2-carboxy-N,N-dimethyl-N-(prop-2-yn-1-yl)prop-2-en-1-aminium Bromide] | 10 | 40 nM and 30 nM | % change from vehicle control + choline diet (CutC/D enzyme; Table 4b, 10 mg/kg oral gavage days 1-3): 20.76%; Mean plasma TMAO (CutC/D enzyme; Table 4b, 10 mg/kg oral gavage days 1-3, plasma 20 h after last gavage): 30.0 µM |
| C#CC[N+](C)(C)CCCCC(=O)O [Compound A51, 4-carboxy-N,N-dimethyl-N-(prop-2-yn-1-yl)butan-1-aminium Bromide] | 930 | 1100 nM | – |
| C[N+]1(C)CC[C@@H](O)C1 [Compound 116, (R)-3-hydroxy-1,1-dimethylpyrrolidin-1-ium Iodide] | ≥ 10000 | ≥ 10000 nM | – |
| C#CC[N@@+]1(C)CCC[C@@H]1CO [Compound 129, (1R,2R)-2-(hydroxymethyl)-1-methyl-1-(prop-2-yn-1-yl)pyrrolidin-1-ium Bromide] | ≥ 10000 | ≥ 10000 nM | – |
| C[N+]1(C)CCCC1COCc1ccccc1 (stereo not drawn) [Compound 134, 2-[(benzyloxy)methyl]-1,1-dimethylpyrrolidin-1-ium Iodide] | ≥ 10000 | ≥ 10000 nM | – |
| C#CC(C)[N+](C)(C)C (stereo not drawn) [Compound 133] | 440 | 660 nM | – |
| C#CC[N+](C)(C)CCO[C@@H]1OC[C@H](OC(C)=O)[C@H](OC(C)=O)[C@H]1OC(C)=O.[I-] [Compound 10, N,N-dimethyl-N-(2-(((3R,4S,5S)-3,4,5-triacetoxytetrahydro-2H-pyran-2-yl)oxy)ethyl)prop-2-yn-1-aminium Iodide] | – | – | % change from vehicle control + choline diet (CutC/D enzyme; [4]): −21%; Mean plasma TMAO (CutC/D enzyme; [5]): 14.9 µM |
| C[N+]1(CF)CC[C@H](O)C1 (stereo partly drawn) [Compound 114, (3S)-1-(fluoromethyl)-3-hydroxy-1-methylpyrrolidin-1-ium Iodide] | 1630 | 2080 nM | – |

| Compound | IC50 [1] [nM] | IC50 [2, 3] | further results |
| --- | --- | --- | --- |
| C#CC1CC[N+](C)(C)C1 (stereo not drawn) [Compound 137, 3-ethynyl-1,1-dimethylpyrrolidin-1-ium Iodide] | ≥ 10000 | ≥ 10000 nM | – |
| C[N+](C)(CCO)c1ccccc1 [Compound 145] | 1380 | ≥ 10000 nM | – |
| C[N+]1(CF)CCC[C@@H]1CO (stereo partly drawn) [Compound 151, (2R)-1-(fluoromethyl)-2-(hydroxymethyl)-1-methylpyrrolidin-1-ium Iodide] | – | 890 nM | % change from vehicle control + choline diet (CutC/D enzyme; Table 4g, 116 mg/kg oral gavage days 1-3): 6%; Mean plasma TMAO (CutC/D enzyme; Table 4g, 116 mg/kg oral gavage days 1-3, plasma 20 h after last gavage): 29.4 µM |
| C[N+]1(CF)CC[C@@H](O)C1 (stereo partly drawn) [Compound 115, (3R)-1-(fluoromethyl)-3-hydroxy-1-methylpyrrolidin-1-ium Iodide] | 9850 | 2070 nM | – |
| C[N+](C)(C)CCCC(=O)O [Compound 127, 3-carboxy-N,N,N-trimethylpropan-1-aminium Iodide] | ≥ 10000 | 5010 nM | – |
| C#CC[N+](C)(C)CC(=C)Cl.[Cl-] [Compound 185, (2-chloroprop-2-en-1-yl)dimethyl(prop-2-yn-1-yl)azanium Chloride] | – | 235 nM | % change from vehicle control + choline diet (CutC/D enzyme; Table 4e, 123.7 mg/kg oral gavage days 1-3): −16%; Mean plasma TMAO (CutC/D enzyme; Table 4e, 123.7 mg/kg oral gavage days 1-3, plasma 20 h after last gavage): 22.2 µM |
| C#CC[N+](C)(C)CCCCOC1O[C@@H](C)[C@@H](OC(=O)CCC)[C@@H](OC(=O)CCC)[C@@H]1OC(=O)CCC.[Br-] (stereo partly drawn) [Compound 58, N,N-dimethyl-N-(prop-2-yn-1-yl)-4-(((3S,4R,5R,6S)-3,4,5-tris(butyryloxy)-6-methyltetrahydro-2H-pyran-2-yl)oxy)butan-1-aminium bromide] | – | – | % change from vehicle control + choline diet (CutC/D enzyme; Table 4d, 10 mg/kg oral gavage days 1-3): −46%; Mean plasma TMAO (CutC/D enzyme; Table 4d, 10 mg/kg oral gavage days 1-3, plasma 20 h after last gavage): 10.1 µM |
| C#CC[N+](C)(C)CCOC1OC[C@@H](OC(C)=O)[C@@H](OC(C)=O)[C@H]1OC(C)=O.[Br-] (stereo partly drawn) [Compound 9, N,N-dimethyl-N-(2-(((3R,4R,5R)-3,4,5-triacetoxytetrahydro-2H-pyran-2-yl)oxy)ethyl)prop-2-yn-1-aminium bromide] | – | – | % change from vehicle control + choline diet (CutC/D enzyme; [4]): 80%; Mean plasma TMAO (CutC/D enzyme; [5]): 33.91 µM |
| C[N+]1(C)CC[C@H](O)C1 [Compound 117, (S)-3-hydroxy-1,1-dimethylpyrrolidin-1-ium Iodide] | ≥ 10000 | ≥ 10000 nM | – |
| C#CCn1ccnc1 [Compound Z76, 1-(prop-2-yn-1-yl)-1H-imidazole] | ≥ 10000 | 4040 nM | – |
| C#CC[N+]1(C)CCC[C@H]1CO (stereo partly drawn) [Compound 108, (2S)-2-(hydroxymethyl)-1-methyl-1-(prop-2-yn-1-yl)pyrrolidin-1-ium bromide] | 2460 | 2190 nM | – |
| C[N+](C)(C)CCNC=O [Compound 128] | ≥ 10000 | ≥ 10000 nM | – |
| C[S+]([O-])C[N+](C)(C)C (stereo not drawn) [Compound 140, (methanesulfinylmethyl)trimethylazanium Chloride] | ≥ 10000 | ≥ 10000 nM | – |
| CC(=O)OC[C@H]1OC(OCC[N+](C)(C)C2CC2)[C@H](OC(C)=O)[C@@H](OC(C)=O)[C@@H]1OC(C)=O.[I-] (stereo partly drawn) [Compound 312, N,N-dimethyl-N-(2-(((3R,4S,5R,6R)-3,4,5-triacetoxy-6-(acetoxymethyl)tetrahydro-2H-pyran-2-yl)oxy)ethyl)cyclopropanaminium iodide] | – | – | % change from vehicle control + choline diet (CutC/D enzyme; Table 4d, 35.4 mg/kg oral gavage days 1-3): −38%; Mean plasma TMAO (CutC/D enzyme; Table 4d, 35.4 mg/kg oral gavage days 1-3, plasma 20 h after last gavage): 11.69 µM |
| C#CC[N+](C)(C)CC(=O)O[C@H]1O[C@H](COC(C)=O)[C@@H](OC(C)=O)[C@H](OC(C)=O)[C@H]1OC(C)=O.O=C([O-])C(F)(F)F [Compound 19, N,N-dimethyl-N-(2-oxo-2-(((2R,3R,4S,5R,6R)-3,4,5-triacetoxy-6-(acetoxymethyl)tetrahydro-2H-pyran-2-yl)oxy)ethyl)prop-2-yn-1-aminium trifluoroacetate] | – | 1730 nM | % change from vehicle control + choline diet (CutC/D enzyme; Table 4a, 333 mg/kg oral gavage days 1-3): −84.29%; Mean plasma TMAO (CutC/D enzyme; Table 4a, 333 mg/kg oral gavage days 1-3, plasma 20 h after last gavage): 5.40 µM |
| C#CC[N+]1(C)CC[C@@H](O)C1 (stereo partly drawn) [Compound 113, (3R)-3-hydroxy-1-methyl-1-(prop-2-yn-1-yl)pyrrolidin-1-ium bromide] | 1250 | 700 nM | – |
